These are literature values, as cited in patent publication US6921754B2, “Compositions containing folic acid and reduced folate” (BASF Aktiengesellschaft, priority 2000, dated 2005).

The subject of this data set is neural tube defects (NTDs) in neonates. Conditions: supplementation of pregnant women with 0.4 to 4 mg of folic acid/day (Hages et al., 1996).

Take `Nc1nc2ncc(CNc3ccc(C(=O)N[C@@H](CCC(=O)O)C(=O)O)cc3)nc2c(=O)[nH]1` [folic acid, N-[4-(2-Amino-3,4-dihydro-4-oxo-6-pteridinylmethylamino)-benzoyl]-L-glutamic acid]: the “decrease in the frequency of abnormalities in newborn infants” value is listed as 50-80%.
